Measured values: ChEMBL document CHEMBL5674860, “Optimized Dual-Glo Assay to identify co-culture-induced drug vulnerabilities in 3D CRC models” (2024)

Columns and labels:
Format in all cases: functional, Homo sapiens
Parameters in all cases: dose or concentration left out as unconfirmed
Colon cancer organoid [1] = assay: Optimized Dual-Glo assay to identify co-culture induced drug vulnerabilities using donated chemical probes and chemogenomics kinase set in O14 CRC organoid and F14 CAF mono and co-culture. […] Cell viability is reported both mono and co-culture models.
Colon cancer organoid [2] = assay: Optimized Dual-Glo assay to identify co-culture induced drug vulnerabilities using donated chemical probes and chemogenomics kinase set in O06 CRC organoid and F06 CAF mono and co-culture. […] Cell viability is reported both mono and co-culture models.
Colon cancer organoid [3] = assay: Optimized Dual-Glo assay to identify co-culture induced drug vulnerabilities using donated chemical probes and chemogenomics kinase set in O20 CRC organoid and F20 CAF mono and co-culture. […] Cell viability is reported both mono and co-culture models.
[4] = Culture type Co-Culture, Transduced with Lucferase2-P2A-EGFP lentivirus
[5] = Culture type Co-Culture, Transduced with Renilla-dsRed lentivirus
[6] = Culture type Mono-Culture, Transduced with Lucferase2-P2A-EGFP lentivirus
[7] = Culture type Mono-Culture, Transduced with Renilla-dsRed lentivirus

Row | SMILES | Cell Viability (Colon cancer organoid [1]; [4]) [%] | Cell Viability (Colon cancer organoid [1]; [5]) [%] | Cell Viability (Colon cancer organoid [1]; [6]) [%] | Cell Viability (Colon cancer organoid [1]; [7]) [%] | Cell Viability (Colon cancer organoid [2]; [4]) [%] | Cell Viability (Colon cancer organoid [2]; [5]) [%] | Cell Viability (Colon cancer organoid [2]; [6]) [%] | Cell Viability (Colon cancer organoid [2]; [7]) [%] | Cell Viability (Colon cancer organoid [3]; [4]) [%] | Cell Viability (Colon cancer organoid [3]; [5]) [%] | Cell Viability (Colon cancer organoid [3]; [6]) [%] | Cell Viability (Colon cancer organoid [3]; [7]) [%]
1 | O=C(CCCCCCNC(=O)c1cnc(N(c2ccccc2)c2ccccc2)nc1)NO [RICOLINOSTAT] | 162.049 | 119.991 | 164.32 | 101.457 | 80.064 | 143.43 | 66.4985 | 158.366 | 158.742 | 130.22 | 89.6658 | 107.525
2 | C=CC(=O)Nc1ccc2[nH]c(=O)n(C3CCN(Cc4ccc(-c5ccc6c(c5)NC(=O)CO6)cc4)CC3)c2c1 [RL2578] | 109.086 | 76.9187 | 101.444 | 81.1144 | 88.4189 | 104.707 | 87.6184 | 83.8435 | 101.172 | 98.7435 | 76.3776 | 83.481
3 | CN(C)CCOc1ccc(-c2nc(-c3ccncc3)c(-c3ccc4c(c3)CC/C4=N\O)[nH]2)cc1 [SB590885] | 125.618 | 131.894 | 138.834 | 91.3736 | 79.2379 | 96.48 | 138.873 | 135.694 | 155.192 | 68.1541 | 66.5679 | 111.294
4 | CC[C@H](CO)Nc1nc(NCc2ccccc2)c2ncn(C(C)C)c2n1 [SELICICLIB] | 135.109 | 107.454 | 106.101 | 84.912 | 93.234 | 112.199 | 108.084 | 105.93 | 126.322 | 75.3934 | 94.0529 | 97.9285
5 | C[C@@H]1CCc2ncc(F)cc2[C@H]2CCCN2c2ccn3ncc(c3n2)C(=O)N1 [SELITRECTINIB] | 80.4223 | 107.034 | 125.619 | 100.351 | 101.733 | 118.761 | 174.799 | 120.583 | 166.265 | 73.3915 | 102.231 | 92.0834
6 | Cc1cc(F)c(C(=O)Nc2cccc(-c3nncn3C(C)C)n2)cc1-n1cnc(C2CC2)c1 [SELONSERTIB] | 131.466 | 127.666 | 127.2 | 83.0493 | 89.6649 | 105.018 | 105.834 | 92.1767 | 141.674 | 89.2485 | 97.5113 | 87.9562
7 | Cn1cnc2c(F)c(Nc3ccc(Br)cc3Cl)c(C(=O)NOCCO)cc21 [SELUMETINIB] | 41.0506 | 90.7653 | 35.0637 | 76.2393 | 107.697 | 90.3962 | 52.8036 | 90.0191 | 54.0546 | 152.417 | 80.7355 | 77.3788
8 | O=C(O)c1ccc2c(c1)nc(Nc1cccc(Cl)c1)c1ccncc12 [SILMITASERTIB] | 93.7278 | 109.514 | 89.7197 | 119.06 | 108.166 | 80.6873 | 78.7074 | 100.788 | 158.738 | 81.7658 | 95.6239 | 79.8512
9 | N#Cc1cnc(Nc2cc(NC[C@H]3CNCCO3)c(C(F)(F)F)cn2)cn1 [SRA-737] | 41.9223 | 191.286 | 52.6101 | 101.86 | 89.9461 | 120.027 | 70.513 | 117.124 | 103.278 | 133.202 | 58.7772 | 96.135
10 | O=C1c2ccc(Nc3ccc(F)cc3F)cc2CCc2ccc(OC[C@H](O)CO)cc21 [Skepinone-L] | 150.905 | 93.4936 | 165.429 | 90.897 | 115.343 | 88.0925 | 155.18 | 90.6486 | 88.3042 | 86.6611 | 113.922 | 95.9781
